In patent publication US10131644B2, “Aryl sultam derivatives as RORc modulators” (Genentech, Inc., priority 2014, dated 2018):

These molecules were tested against T1, RORc (Homo sapiens, UniProt P51449) (assay: In vitro RORc ligand binding assay (25-[3H]hydroxycholesterol displacement)). Conditions: IC50, IC50 values for RORc; unit inferred.
T1 sequence (P51449 269-508 limits assumed): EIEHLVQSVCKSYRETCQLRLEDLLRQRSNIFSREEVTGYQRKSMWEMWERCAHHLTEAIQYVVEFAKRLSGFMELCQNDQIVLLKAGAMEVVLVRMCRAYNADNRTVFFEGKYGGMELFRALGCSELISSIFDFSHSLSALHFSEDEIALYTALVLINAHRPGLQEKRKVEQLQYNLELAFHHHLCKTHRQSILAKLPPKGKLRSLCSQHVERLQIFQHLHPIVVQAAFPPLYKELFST
Molecule COCCCOCC1(c2ccc(CN3[C@@H](C)CC[C@H](c4ccccc4)S3(=O)=O)c(F)c2)CCOCC1 [Compound 91, (3S,6R)-2-[[2-fluoro-4-[4-(3-methoxypropoxymethyl)tetrahydro-pyran-4-yl]phenyl]methyl]-3-methyl-6-phenyl-thiazinane 1,1-dioxide] has an IC50 of 0.103 µM.
In the case of C[C@H]1CC[C@H](c2ccccc2)S(=O)(=O)N1Cc1ccc(C2(CC(N)=O)CCOCC2)cc1F [Compound 89, 2-[4-[3-fluoro-4-[[(3S,6R)-3-methyl-1,1-dioxo-6-phenyl-thiazinan-2-yl]methyl]phenyl]tetrahydropyran-4-yl]acetamide], the IC50 is reported as 0.376 µM.
In the case of C[C@H]1CC[C@H](c2ccccc2)S(=O)(=O)N1Cc1ccc(C2(OCCO)CCOCC2)cc1F [Compound 99, 2-[4-[3-fluoro-4-[[(3S,6R)-3-methyl-1,1-dioxo-6-phenyl-thiazinan-2-yl]methyl]phenyl]tetrahydropyran-4-yl]oxyethanol], the IC50 is reported as 0.0664 µM.
For C[C@H]1CC[C@H](c2ccccc2)S(=O)(=O)N1Cc1ccc(C2(OC[C@@H](O)CO)CCOCC2)cc1F [Compound 119, (2S)-3-[4-[3-fluoro-4-[[(3S,6R)-3-methyl-1,1-dioxo-6-phenyl-thiazinan-2-yl]methyl]phenyl]tetrahydropyran-4-yl]oxypropane-1,2-diol], the IC50 was 0.0274 µM.
Molecule C[C@H]1CC[C@H](c2ccccc2)S(=O)(=O)N1Cc1ccc(OCC2(CS(C)(=O)=O)CCOCC2)cc1F [Example 4, (3S,6R)-2-[2-Fluoro-4-(4-methanesulfonylmethyl-tetrahydro-pyran-4-ylmethoxy)-benzyl]-3-methyl-6-phenyl-[1,2]thiazinane 1,1-dioxide] has an IC50 of 0.046 µM.
C[C@H]1CC[C@H](c2ccccc2)S(=O)(=O)N1Cc1cc(F)c(C2(OCC(O)CO)COC2)cc1F (stereo partly drawn) [Compound 142, 3-[3-[2,5-difluoro-4-[[(3S,6R)-3-methyl-1,1-dioxo-6-phenyl-thiazinan-2-yl]methyl]phenyl]oxetan-3-yl]oxypropane-1,2-diol] showed an IC50 of 0.0206 µM.
For C[C@H]1CC[C@H](c2ccccc2)S(=O)(=O)N1Cc1ccc(C2(C(=O)NCC(N)=O)CCOCC2)cc1F [Compound 59, N-(2-amino-2-oxo-ethyl)-4-[3-fluoro-4-[[(3S,6R)-3-methyl-1,1-dioxo-6-phenyl-thiazinan-2-yl]methyl]phenyl]tetrahydropyran-4-carboxamide], the IC50 was 0.268 µM.
For COC(=O)[C@]1(c2ccc(CN3[C@@H](C)CC[C@H](c4ccccc4)S3(=O)=O)cc2)CC[C@@H](n2cnnc2)CC1 [Example 12, 1-[4-((3S,6R)-3-Methyl-1,1-dioxo-6-phenyl-[1,2]thiazinan-2-ylmethyl)-phenyl]-4-[1,2,4]triazol-4-yl-cyclohexanecarboxylic acid methyl ester], the IC50 was 0.63 µM.
C[C@H]1CC[C@H](c2ccccc2)S(=O)(=O)N1Cc1cc(F)c(C2(OCC(N)=O)COC2)cc1F [Compound 138, 2-[3-[2,5-difluoro-4-[[(3S,6R)-3-methyl-1,1-dioxo-6-phenyl-thiazinan-2-yl]methyl]phenyl]oxetan-3-yl]oxyacetamide] gave an IC50 of 0.0026 µM.
C[C@H]1CC[C@H](c2ccccc2)S(=O)(=O)N1Cc1ccc(C2(OCC(=O)O)CCOCC2)cc1F [Compound 110, 2-[4-[3-fluoro-4-[[(3S,6R)-3-methyl-1,1-dioxo-6-phenyl-thiazinan-2-yl]methyl]phenyl]tetrahydropyran-4-yl]oxyacetic acid] showed an IC50 of 0.0629 µM.
With CC(=O)N(C)CC1(c2ccc(CN3[C@@H](C)CC[C@H](c4ccccc4)S3(=O)=O)c(F)c2)CCOCC1 [Compound 80, N-[[4-[3-fluoro-4-[[(3S,6R)-3-methyl-1,1-dioxo-6-phenyl-thiazinan-2-yl]methyl]phenyl]tetrahydropyran-4-yl]methyl]-N-methyl-acetamide] the IC50 was 0.104 µM.
C[C@H]1CC[C@H](c2ccccc2)S(=O)(=O)N1Cc1ccc(C2(NC[C@@H](O)CO)CCOCC2)cc1F [Compound 108] showed an IC50 of 0.0504 µM.
